Laboratory results as given in PubChem BioAssay (NCI).
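Five concentrations, 48 hours, 96-well plates. GI50 = concentration required for 50% inhibition of growth. TGI: concentration producing complete growth inhibition.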

Legend:
Assay in all cases: NCI tumour cell line growth inhibition, 48 h
SK-MEL-5 melanoma = system: SK-MEL-5 melanoma
NCI-H23 lung = system: NCI-H23 lung
786-0 renal = system: 786-0 renal
HS 578T breast = system: HS 578T breast
ACHN renal = system: ACHN renal
UACC-257 melanoma = system: UACC-257 melanoma
OVCAR-5 ovarian = system: OVCAR-5 ovarian
NCI-H522 lung = system: NCI-H522 lung
OVCAR-8 ovarian = system: OVCAR-8 ovarian
HOP-62 NSCLC = system: HOP-62 NSCLC

SMILES | TGI (SK-MEL-5 melanoma) [µM] | TGI (NCI-H23 lung) [µM] | TGI (786-0 renal) [µM] | TGI (HS 578T breast) [µM] | TGI (ACHN renal) [µM] | TGI (UACC-257 melanoma) [µM] | TGI (OVCAR-5 ovarian) [µM] | TGI (NCI-H522 lung) [µM] | TGI (OVCAR-8 ovarian) [µM] | TGI (HOP-62 NSCLC) [µM] | GI50 (SK-MEL-5 melanoma) [µM] | GI50 (NCI-H23 lung) [µM] | GI50 (HS 578T breast) [µM] | GI50 (ACHN renal) [µM] | GI50 (UACC-257 melanoma) [µM] | GI50 (OVCAR-5 ovarian) [µM] | GI50 (NCI-H522 lung) [µM] | GI50 (OVCAR-8 ovarian) [µM] | GI50 (HOP-62 NSCLC) [µM]
C=C(C)C12CC(COC(=O)c3ccccc3)C34OC5(OC1C3C1OC1(CO)C(O)C1(O)C(OC(=O)c3ccccc3)C(C)C(C(C)CCCCCCC5O)C14)O2 (stereo unspecified) | > 100 | > 100 | > 100 | > 100 | > 100 | > 100 | > 100 | > 100 | > 100 | – | – | – | – | – | – | – | – | – | –
Cc1nnc(Nc2ccccc2)o1 | > 100 | > 100 | > 100 | – | > 100 | > 100 | > 100 | > 100 | > 100 | – | – | – | – | – | – | – | – | – | –
c1ccc(C2C3=C(Nc4ncnn42)c2ccccc2C3)cc1 (stereo unspecified) | > 100 | 65.1 | 78.2 | – | > 100 | > 100 | > 100 | 26.5 | > 100 | > 100 | – | – | – | – | – | – | – | – | –
OCc1ccc2[n+](c1)CCC1c3ccccc3NC21 (stereo unspecified) | > 300 | > 300 | > 300 | – | > 300 | > 300 | – | > 300 | > 300 | > 300 | – | – | – | – | – | – | – | – | –
Cc1nc(-c2ccc([N+](=O)[O-])cc2)cn2c1nc1ccccc12 | – | > 100 | > 100 | > 100 | – | > 100 | > 100 | – | > 100 | > 100 | – | – | – | – | – | – | – | – | –
COc1ccc(C(C#N)NNC(=O)c2ccccc2O)cc1OC (stereo unspecified) | 46.9 | 28.4 | > 100 | – | 96.6 | > 100 | > 100 | 30.1 | > 100 | > 100 | – | – | – | – | – | – | – | – | –
COc1ccc2[nH]c(O)c(/C=c3/cc4c(c(-c5cc(OC)c(OC)c(OC)c5)n3)=Nc3ccccc3-4)c2c1 | 77.8 | > 100 | – | > 100 | > 100 | > 100 | > 100 | > 100 | > 100 | > 100 | 2.47 | 5.28 | 9.81 | 7.47 | 29.7 | > 100 | 5.03 | 3.77 | 11.6
NC(N)=NS(=O)(=O)c1ccc(NCc2c3ccccc3[n+]([O-])c3ccccc23)cc1 | 33.5 | > 100 | > 100 | – | 70.4 | > 100 | > 100 | > 100 | > 100 | > 100 | – | – | – | – | – | – | – | – | –
CC(C)(C)c1ccc2c(c1)CNCCNCc1cc(C(C)(C)C)ccc1OCC1(CO2)COc2ccc(C(C)(C)C)cc2CNCCNCc2cc(C(C)(C)C)ccc2OC1 | 3.37 | 2.59 | 0.388 | – | 2.98 | 3 | 3.06 | 0.421 | 1.45 | 2.66 | – | – | – | – | – | – | – | – | –
CC1(C)CC(/C=C2/OC(=O)c3ccccc32)=C(C#N)C(=O)O1 | > 100 | > 100 | > 100 | – | > 100 | > 100 | > 100 | > 100 | > 100 | > 100 | – | – | – | – | – | – | – | – | –
O=C(CCCCCCCCC(=O)NN1C(=O)/C(=C\c2ccc(O)c(O)c2)SC1c1ccc(Cl)cc1)NN1C(=O)/C(=C\c2ccc(O)c(O)c2)SC1c1ccc(Cl)cc1 (stereo unspecified) | > 100 | 41.8 | 34.4 | – | 71.8 | > 100 | > 100 | 32.5 | 34 | 31.5 | – | – | – | – | – | – | – | – | –
CC(C)Sc1nc(C#N)cc2c1CCCC2 | 33.2 | > 100 | > 100 | – | > 100 | > 100 | > 100 | 78.4 | > 100 | > 100 | – | – | – | – | – | – | – | – | –
O=C(CN1c2ccccc2Sc2ccccc21)N1CCNCC1 | > 100 | > 100 | > 100 | > 100 | > 100 | > 100 | > 100 | – | > 100 | > 100 | – | – | – | – | – | – | – | – | –
N.N.N.O=[N+]([O-])[O-].O=[N+]([O-])[O-].O=[N+]([O-])[O-].O=[N+]([O-])[O-].[Co+3] | > 100 | > 100 | > 100 | – | > 100 | > 100 | > 100 | > 100 | > 100 | > 100 | – | – | – | – | – | – | – | – | –
COC(=O)CC(=O)C[P+](c1ccccc1)(c1ccccc1)c1ccccc1 | > 218 | > 218 | > 218 | – | > 218 | > 218 | – | 86.8 | > 218 | > 218 | – | – | – | – | – | – | – | – | –
CCOC(=O)C1Cc2[nH]c3ccccc3c2C(C)C1C (stereo unspecified) | 26.9 | 27.3 | 28.2 | – | 39.8 | 32.3 | 32.2 | 26.6 | 13.4 | – | – | – | – | – | – | – | – | – | –
COc1ccc(C2Oc3c(cc(O)c(OC)c3C)[C@@H]2C)cc1OC (stereo partly specified) | > 100 | > 100 | > 100 | – | > 100 | > 100 | > 100 | > 100 | > 100 | > 100 | – | – | – | – | – | – | – | – | –

SMILES | TGI (SK-MEL-5 melanoma) [µM] | TGI (NCI-H23 lung) [µM] | TGI (786-0 renal) [µM] | TGI (HS 578T breast) [µM] | TGI (ACHN renal) [µM] | TGI (UACC-257 melanoma) [µM] | TGI (OVCAR-5 ovarian) [µM] | TGI (NCI-H522 lung) [µM] | TGI (OVCAR-8 ovarian) [µM] | TGI (HOP-62 NSCLC) [µM] | GI50 (SK-MEL-5 melanoma) [µM] | GI50 (NCI-H23 lung) [µM] | GI50 (HS 578T breast) [µM] | GI50 (ACHN renal) [µM] | GI50 (UACC-257 melanoma) [µM] | GI50 (OVCAR-5 ovarian) [µM] | GI50 (NCI-H522 lung) [µM] | GI50 (OVCAR-8 ovarian) [µM] | GI50 (HOP-62 NSCLC) [µM]
Cn1cc2ccccc2c1-c1nc(N)nc(F)n1 | > 100 | > 100 | > 100 | – | > 100 | > 100 | > 100 | > 100 | > 100 | > 100 | – | – | – | – | – | – | – | – | –
Oc1ccc(/C=C/c2cc(O)cc(O)c2)cc1 | – | > 100 | – | – | > 100 | > 100 | > 100 | – | > 100 | > 100 | – | – | – | – | – | – | – | – | –
CCCCN1C(=O)CC2[C@@H]3CCc4cc(OC(C)=O)ccc4C3CC[C@]2(C)C1=O (stereo partly specified) | > 10 | > 10 | > 10 | > 10 | > 10 | > 10 | > 10 | – | > 10 | > 10 | – | – | – | – | – | – | – | – | –
CC[C@]1(Cc2ccc(OC)c(OC)c2)CN(S(=O)(=O)c2ccc(C)cc2)C[C@@H]1OC(C)=O | > 100 | > 100 | > 100 | > 100 | > 100 | > 100 | > 100 | – | > 100 | > 100 | – | – | – | – | – | – | – | – | –
COc1cc2c(cc1OC)C1=Cc3cc(OC)c(OC)cc3C(C)N1C=C2 (stereo unspecified) | > 100 | > 100 | > 100 | > 100 | > 100 | > 100 | > 100 | – | > 100 | > 100 | – | – | – | – | – | – | – | – | –
O=C(O)CSc1nnc(COc2ccc(Cl)cc2)n1-c1ccccc1 | – | > 100 | > 100 | – | > 100 | > 100 | > 100 | > 100 | > 100 | > 100 | – | – | – | – | – | – | – | – | –
CC(O[Si](c1ccccc1)(c1ccccc1)C(C)(C)C)[C@H](NC(=O)OC(C)(C)C)C(=O)O[Si](c1ccccc1)(c1ccccc1)C(C)(C)C (stereo partly specified) | 30.9 | 26.1 | 25.9 | 44.4 | 23.9 | 28.8 | 30.4 | – | 33.6 | 34.2 | – | – | – | – | – | – | – | – | –
C/C(CCOC1CCCCO1)=C(\C)[Si](C)(C)C (stereo unspecified) | > 100 | > 100 | – | – | > 100 | > 100 | > 100 | > 100 | > 100 | – | – | – | – | – | – | – | – | – | –
COc1ccc(-n2c(=O)c3[nH]cnc3n(-c3ccc(OC)cc3)c2=S)cc1 | > 100 | > 100 | > 100 | – | > 100 | > 100 | > 100 | > 100 | > 100 | > 100 | – | – | – | – | – | – | – | – | –
NC(=O)N/N=C(\Cc1nc2ccc(Cl)cc2[nH]c1=O)C(=O)Nc1ccc(Cl)cc1Cl | > 100 | > 100 | > 100 | > 100 | > 100 | > 100 | > 100 | > 100 | > 100 | – | – | – | – | – | – | – | – | – | –
C=C(C(=O)C(=O)Oc1ccc(Cl)cc1)C(=O)c1ccc(C)cc1 | > 100 | > 100 | – | – | > 100 | > 100 | > 100 | 40 | > 100 | > 100 | – | – | – | – | – | – | – | – | –
Nc1ccc2nc(-c3ccccn3)c(-c3ccccn3)nc2c1 | > 100 | – | > 100 | > 100 | > 100 | > 100 | > 100 | > 100 | > 100 | – | – | – | – | – | – | – | – | – | –
COCCOCOc1ccc(OCc2ccccc2)cc1 | > 100 | > 100 | – | – | – | > 100 | > 100 | – | > 100 | > 100 | – | – | – | – | – | – | – | – | –
O=c1[nH]n2c(=O)cc[nH]c2c1-c1nnns1 | > 100 | > 100 | > 100 | – | > 100 | – | > 100 | > 100 | – | > 100 | – | – | – | – | – | – | – | – | –
CC1(Cl)C(=O)NC(=O)N(C2CC(N=[N+]=[N-])C(CO)O2)C1N=[N+]=[N-] (stereo unspecified) | > 100 | > 100 | > 100 | – | > 100 | > 100 | > 100 | > 100 | > 100 | > 100 | – | – | – | – | – | – | – | – | –
N=C1CSC2=NC3=C(CCC/C3=C\c3ccccc3)C(c3ccccc3)N12 (stereo unspecified) | 19.3 | 15.6 | 18.3 | – | 24.8 | 30 | 20.1 | 9.71 | 19.5 | 25.6 | – | – | – | – | – | – | – | – | –
CC(CN1c2ccccc2Sc2ccccc21)N(C)C (stereo unspecified) | 35.6 | 38.2 | 27.9 | – | 30.7 | 39.4 | 32.8 | 36.3 | 29.8 | 28.5 | – | – | – | – | – | – | – | – | –
